Here are results for 1 compound from patent US20060009478A1, “Methods for the treatment of back pain” (priority 2003, published 2006).

The experiment has as its system patients with moderate to severe chronic pain due to osteoarthritis of the hip or knee. Put plainly: WOMAC Osteoarthritis Index (pain, stiffness, physical function subscales, total score), 3-week osteoarthritis study. Type of experiment: in vivo, human. Particulars: LOCF; for WOMAC osteoarthritis physical function subscale, actual value, mean / WOMAC osteoarthritis physical function subscale, actual value, median / WOMAC osteoarthritis stiffness subscale, actual value, mean / WOMAC osteoarthritis stiffness subscale, actual value, median / WOMAC osteoarthritis total score, actual value, mean / WOMAC osteoarthritis total score, actual value, median / WOMAC osteoarthritis pain subscale, actual value, mean / WOMAC osteoarthritis pain subscale, actual value, median: intent to treat population. The source says: Back pain can be associated with an arthritic condition or inflammation associated with chronic conditions. […] The methods comprise administering to a human subject an amount of an opioid antagonist or the combination of an opioid agonist and an opioid antagonist that is effective to enhance potency of the agonist and/or to alleviate one or more symptoms or signs of an arthritic condition or inflammation associated with a chronic condition, including for example, as measured by a suitable index, scale or measure. The attenuation of one or more symptoms or signs of an arthritic condition or of inflammation associated with a chronic condition may be measured on the WOMAC Osteoarthritis Index or one of its subscales (in other words, the pain, stiffness, or physical function subscales of the WOMAC Osteoarthritis Index). Any suitable version of the WOMAC OA Index may be used, including, for example, Version 3.0 or Version 3.1. Any suitable scale may be used as well. The WOMAC OA Index is available in Likert and Visual Analog scaled formats, either of which may be employed in the present methods. […] The WOMAC values represent a subjective surrogate marker. Alternatively or additionally, the attenuation of one or more symptoms or signs may be measured on another suitable index, scale or measure, such the Australian/Canadian (AUSCAN) Osteoarthritis Hand Index or the Osteoarthritis Global Index (OGI). The AUSCAN 3.1 Index and User Guide are currently available from http://www.womac.org/contact/index.cfm, as are the WOMAC 3.1 Osteoarthritis Index and User Guide. Another suitable measure of attenuation is the Definition of Improvement in Rheumatoid Arthritis described in Felson et al., Arthritis & Rheumatism 38:727-735 (1995) incorporated herein by reference. This measure, which also may be designated as the ACR (American College of Rheumatology) 20 improvement, is a composite defined as both improvement of 20% in the number of tender and number of swollen joints, and a 20% improvement in three of the following five: patient global, physician global, patient pain, patient function assessment, and C-reactive protein (CRP). Another suitable measure is described by Paulus et al., Arthritis & Rheumatism 33:477-484 (1990) which is incorporated herein by reference. Paulus et al. provides a definition of improvement based on a set of measures that discriminate between active second-line drug treatment and placebo. These include a 20% improvement in morning stiffness, erythrocyte sedimentation rate (ESR), joint tenderness score, and joint swelling score and improvement by at least 2 grades on a 5-grade scale (or from grade 2 to grade 1) for patient and physician global assessments of current disease severity. Current disease severity can be measured in a variety of ways, including patient or physician global assessments, patient or physician assessments of joint tenderness, joint swelling stiffness, pain, or physical function, cytokine levels, B-cell or T-cell subtype ratios, erythrocyte sedimentation rate (ESR), or C-reactive protein. Suitable measures of attenuation of one or more symptoms or signs, of inhibiting the progression of an arthritic condition or chronic condition, or of reversing tissue or cellular damage include measuring current disease severity. Other indexes, definitions, measures, or scales may also be used for measuring attenuation of one or more symptoms or signs, inhibition of progression, or reversal of tissue or cellular damage.
A daily diary was to be utilized to record overall pain intensity (PI) and other signs and symptoms.

On to `COc1ccc2c3c1O[C@H]1C(=O)CC[C@@]4(O)[C@@H](C2)N(C)CC[C@]314` [OXY QID, oxycodone], for which, where the note is “ITT”, the “WOMAC osteoarthritis pain subscale, actual value at Week 1, mean” value was 263.2 and the “WOMAC osteoarthritis pain subscale, actual value at Week 1, median” value is 279.0. For the same compound, for the setting “Week 1”, the “WOMAC osteoarthritis physical function subscale, actual value, mean” value was found to be 891.8; the “WOMAC osteoarthritis physical function subscale, actual value, median” value amounted to 930.5; the “WOMAC osteoarthritis stiffness subscale, actual value, mean” value is listed as 120.3; the “WOMAC osteoarthritis stiffness subscale, actual value, median” value is on record as 129.5. For the same compound, under “Week 1”, the “WOMAC osteoarthritis total score, actual value, mean” value was found to be 1275.3 and the “WOMAC osteoarthritis total score, actual value, median” value came out at 1312.5. Further, under “Week 2”, the “WOMAC osteoarthritis pain subscale, actual value, mean” value was 245.0; the “WOMAC osteoarthritis pain subscale, actual value, median” value is reported as 227.5; the “WOMAC osteoarthritis physical function subscale, actual value, mean” value was 847.6; the “WOMAC osteoarthritis physical function subscale, actual value, median” value is reported as 880.0. Also, where the note is “Week 2”, the “WOMAC osteoarthritis stiffness subscale, actual value, mean” value is recorded as 111.4; the “WOMAC osteoarthritis stiffness subscale, actual value, median” value came out at 119.5; the “WOMAC osteoarthritis total score, actual value, mean” value worked out at 1204.0; the “WOMAC osteoarthritis total score, actual value, median” value was determined as 1222.5. Besides, where the note is “Week 3”, the “WOMAC osteoarthritis pain subscale, actual value, mean” value was found to be 238.7; the “WOMAC osteoarthritis pain subscale, actual value, median” value is 225.0; the “WOMAC osteoarthritis physical function subscale, actual value, mean” value was 820.0; the “WOMAC osteoarthritis physical function subscale, actual value, median” value is 867.0. Where the note is “Week 3”, the “WOMAC osteoarthritis stiffness subscale, actual value, mean” value is recorded as 106.3; the “WOMAC osteoarthritis stiffness subscale, actual value, median” value worked out at 109.0; the “WOMAC osteoarthritis total score, actual value, mean” value is reported as 1164.9; the “WOMAC osteoarthritis total score, actual value, median” value is given as 1191.0.
